Reference: patent publication US8729048B2, “Methods and materials for assessing responsiveness to PARP inhibitors and platinating agents” (Mayo Foundation for Medical Education and Research, priority 2011, dated 2014)

Key:
Type in all cases: cell-based
[1] = system: BRCA1-deficient HCC1937 cells; experiment: Clonogenic assay, HCC1937; conditions: continuous exposure, 125 nM DNA-PKi
Method: (§1) FIG. 6. […] (A) BRCA1-deficient HCC1937 and BRCA1-reconstituted HCC1937/BRCA1 cells were continuously exposed to ABT-888 in the presence or absence of 125 nM DNA-PKi and assayed for clonogenic survival. Inset, Western blots of cell lysates from HCC1937 and HCC1937/BRCA1. (B) Western blots of M059J and reconstituted M059J+DNA-PKcs lines showing the restoration of DNA-PK expression and the shRNA-mediated knockdown of BRCA1. (C) Clonogenic survival of shRNA transfected M059J/M059J+DNA-PKcs lines treated with ABT-888 for 72 hours. (D) Clonogenic survival of ATM-deficient GM16666 or ATM-reconstituted GM16667 fibroblasts. Cells were exposed to ABT-888 for 48 hours in the presence or absence of 250 nM DNA-PKi, washed, and allowed to form colonies. Inset, Western blots of lysates from GM16666 and GM16667 fibroblasts. […] Results are representative of 3 independent experiments.
Colony formation assays were performed on siRNA-transfected PEO1 and PEO4 cells 48 hours after the second transfection. Cells were trypsinized and plated at 750 cells/plate in triplicate 60-mm dishes containing medium A, allowed to grow 10-14 days, and stained with Coomassie Brilliant Blue. Colonies containing ≧50 cells were scored manually. […]

[2] = system: poly(ADP-ribose) polymer (pADPr) in PEO1 cells; experiment: Immunoblotting for poly(ADP-ribose) polymer; conditions: 72 hours, ABT-888 0-40 μM
Method: FIG. 2. DNA-PK is activated following PARP inhibitor exposure in PEO1 cells. (A) Western blots for poly(ADP-ribose) polymer (pADPr) and phosphorylation of DNA-PK substrates (DNA-PKcs autophosphorylation at Thr^2609 and Histone H2AX at Ser^139) in PEO1 cells following 72 hours exposure to increasing concentrations of ABT-888 (0, 0.625, 1.25, 2.5, 5, 10, 20, and 40 μM). Hsp90, total DNA-PKcs, and Histone H1 are used as loading controls. […] (C) Quantitation of cells positive for phospho-H2AX foci in PEO1 and PEO4 cells, following treatment with DMSO, 500 nM DNA-PKi, 20 μM ABT-888 (ABT), ABT-888 and DNA-PKi, 50 μM Etoposide (Etop), or 5 Gy ionizing radiation (IR). […]
Cells were washed twice with calcium- and magnesium-free Dulbecco's phosphate-buffered saline (PBS) and solubilized in 6 M guanidine hydrochloride containing 250 mM Tris-HCl, pH 8.5 at 20° C., 10 mM EDTA, 1% (v/v) 2-mercaptoethanol, and 1 mM freshly added phenylmethylsulfonyl fluoride. After preparation for electrophoresis as described elsewhere (Kaufmann et al., Blood, 89:2098-2104 (1997)), aliquots containing 50 μg of protein (determined by the bicinchoninic acid method—S10) were separated on SDS-polyacrylamide gels containing 8% (w/v) acrylamide, electrophoretically transferred to nitrocellulose, and probed with immunological reagents as described elsewhere (Kaufmann, Anal. Biochem., 296:283-286 (2001)). […]

[3] = system: DNA-PKcs-reconstituted M059J cells; experiment: Clonogenic assay, M059J+DNA-PKcs; conditions: BRCA1 shRNA
Method: as §1
All siRNA oligonucleotides were purchased from Ambion, Inc. (Austin, Tex.). Sequences, with references, are provided below. PEO1 and PEO4 cells were transfected with 150 picomoles of siRNA using the HiPerfect lipid transfection reagent (Qiagen; Valencia, Calif.). […]
Colony formation assays were performed on siRNA-transfected PEO1 and PEO4 cells 48 hours after the second transfection. […] Colonies containing ≧50 cells were scored manually. […]

Structure (SMILES): CCN1CCN(CC(=O)Nc2ccc(-c3cccc4c(=O)cc(N5CCOCC5)oc34)c3sc4ccccc4c23)CC1 [AZ 12594248]
- effect on ABT-888 sensitivity (clonogenic survival) [1]: diminished ABT-888 sensitivity

Structure (SMILES): C[C@]1(c2nc3c(C(N)=O)cccc3[nH]2)CCCN1 [ABT-888]
- poly(ADP-ribosyl)ation [2]: decreased
- clonogenic sensitivity to ABT-888 after BRCA1 knockdown [3]: sensitized
